Experimental data from the supplement of paper PMC9663587.

What was measured:
Assay in all cases: GRmax, 72 h; higher = less effect;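 further: breast cell lines in 384-well plates, nine doses across a 10^4 range, Dye Drop imaging of viable cells vs DMSO and time-zero plates, GR 0 means no net growth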
HCC1143 = system: HCC1143
HCC1395 = system: HCC1395
EVSAT = system: EVSAT
SUM1315 = system: SUM1315
HCC70 = system: HCC70
MCF10A = system: MCF10A
MDAMB231 = system: MDAMB231
BT549 = system: BT549
HCC1419 = system: HCC1419
PDX1258 = system: PDX1258

Row | Structure (SMILES) | GRmax, 72 h (HCC1143) [GR] | GRmax, 72 h (HCC1395) [GR] | GRmax, 72 h (EVSAT) [GR] | GRmax, 72 h (SUM1315) [GR] | GRmax, 72 h (HCC70) [GR] | GRmax, 72 h (MCF10A) [GR] | GRmax, 72 h (MDAMB231) [GR] | GRmax, 72 h (BT549) [GR] | GRmax, 72 h (HCC1419) [GR] | GRmax, 72 h (PDX1258) [GR] | GRmax, 72 h (HCC1143; main component drawn) [GR] | GRmax, 72 h (HCC1395; main component drawn) [GR] | GRmax, 72 h (SUM1315; main component drawn) [GR] | GRmax, 72 h (HCC70; main component drawn) [GR] | GRmax, 72 h (MCF10A; main component drawn) [GR] | GRmax, 72 h (MDAMB231; main component drawn) [GR] | GRmax, 72 h (BT549; main component drawn) [GR] | GRmax, 72 h (HCC1419; main component drawn) [GR] | GRmax, 72 h (PDX1258; main component drawn) [GR]
1 | CS(=O)(=O)N1CCN(Cc2cc3nc(-c4cccc5[nH]ncc45)nc(N4CCOCC4)c3s2)CC1 [Pictilisib/GDC0941] (max 10 µM) | -0.129 | -0.0143 | -0.565 | 0.13 | -0.597 | 0.193 | 0.305 | 0.146 | -0.21 | 0.0518 | – | – | – | – | – | – | – | – | –
2 | O=C1NC(=O)[C@@H](c2cn3c4c(cccc24)CCC3)[C@@H]1c1c[nH]c2ccccc12 [Tivantinib/ARQ197] (max 10 µM) | -0.312 | -0.483 | -0.336 | -0.43 | -0.566 | -0.15 | -0.0845 | -0.265 | 0.163 | -0.209 | – | – | – | – | – | – | – | – | –
3 | Cc1c(N)nc([C@H](CC(N)=O)NC[C@H](N)C(N)=O)nc1C(=O)N[C@H](C(=O)N[C@H](C)[C@@H](O)[C@H](C)C(=O)N[C@H](C(=O)NCCc1nc(-c2nc(C(=O)NCCC[S+](C)C)cs2)cs1)[C@@H](C)O)[C@@H](OC1OC(CO)C(O)C(O)C1OC1OC(CO)C(O)C(OC(N)=O)C1O)c1cnc[nH]1 (some centres not stated) [Bleomycin] (max 10 µM) | – | – | – | – | – | – | – | – | – | – | -0.208 | -0.402 | 0.149 | -0.115 | 0.0378 | 0.436 | -0.0141 | 0.354 | 0.0721
4 | CO[C@H]1C[C@@H]2CC[C@@H](C)[C@@](O)(O2)C(=O)C(=O)N2CCCC[C@H]2C(=O)O[C@H]([C@H](C)C[C@@H]2CC[C@@H](OCCO)[C@H](OC)C2)CC(=O)[C@H](C)/C=C(\C)[C@@H](O)[C@@H](OC)C(=O)[C@H](C)C[C@H](C)/C=C/C=C/C=C/1C [Everolimus] (max 10 µM) | 0.557 | 0.404 | 0.354 | 0.402 | 0.373 | 0.789 | 0.711 | 0.52 | 0.18 | 0.631 | – | – | – | – | – | – | – | – | –
5 | CN1CC[C@H](c2c(O)cc(O)c3c(=O)cc(-c4ccccc4Cl)oc23)[C@H](O)C1 [Flavopiridol] (max 1 µM) | -0.316 | -0.644 | -0.514 | -0.887 | -0.811 | -0.67 | -0.441 | -0.44 | -0.263 | -0.507 | – | – | – | – | – | – | – | – | –
6 | CNCc1ccc(-c2[nH]c3cc(F)cc4c3c2CCNC4=O)cc1 [Rucaparib] (max 10 µM) | 0.785 | 0.234 | 0.908 | 0.0259 | 1.06 | 0.874 | 0.634 | 0.91 | 0.855 | 0.564 | – | – | – | – | – | – | – | – | –
7 | CC[C@@H]1C(=O)N(C)c2cnc(Nc3ccc(C(=O)N[C@H]4CC[C@H](N5CCN(CC6CC6)CC5)CC4)cc3OC)nc2N1C(C)C [Volasertib/BI6727] (max 1 µM) | -0.345 | -0.296 | -0.375 | -0.388 | -0.205 | -0.0887 | -0.0186 | -0.229 | 0.0685 | -0.232 | – | – | – | – | – | – | – | – | –
8 | CC1(N)CCN(c2cnc(-c3cccc(Cl)c3Cl)c(N)n2)CC1 [SHP099] (max 10 µM) | 0.796 | 0.548 | 0.952 | 0.523 | 0.708 | 0.571 | 0.943 | 0.825 | 0.819 | 1.09 | – | – | – | – | – | – | – | – | –
9 | CNc1nc(-c2ccc3c(N)n[nH]c3c2)cc(N2C[C@@H](C(=O)NC3CCCCC3)CC[C@H]2C)n1 (max 10 µM) | 0.742 | 0.518 | -0.049 | 0.421 | 0.15 | 0.918 | 0.662 | 0.666 | 0.442 | 0.644 | – | – | – | – | – | – | – | – | –
10 | CCc1cncnc1N1CCN(Cc2nc3ccc(C(F)(F)F)cc3[nH]2)CC1 (max 10 µM) | 0.739 | 0.659 | 0.711 | 0.595 | 0.935 | 0.721 | 0.854 | 0.744 | 0.349 | 0.775 | – | – | – | – | – | – | – | – | –
11 | COc1cc2c(Oc3ccc4[nH]c(C)cc4c3F)ncnc2cc1OCCCN1CCCC1 [Cediranib/AZD2171] (max 10 µM) | 0.0093 | -0.482 | 0.498 | -0.228 | -0.326 | 0.478 | -0.362 | -0.135 | -0.0329 | -0.561 | – | – | – | – | – | – | – | – | –
12 | CCc1cnn2c(NCc3ccc[n+]([O-])c3)cc(N3CCCC[C@H]3CCO)nc12 (max 1 µM) | -0.253 | -0.497 | 0.0834 | -0.667 | -0.909 | -0.23 | -0.42 | -0.292 | -0.476 | -0.617 | – | – | – | – | – | – | – | – | –
13 | COc1cccc(OCCCN)c1-c1cc(Nc2cnc(C#N)cn2)n[nH]1 | -0.117 | -0.491 | 0.713 | -0.419 | -0.639 | 0.351 | -0.172 | -0.422 | 0.248 | -0.457 | – | – | – | – | – | – | – | – | –
14 | N.N.[Cl][Pt][Cl] [Cisplatin] (max 10 µM) | 0.0754 | -0.222 | – | 0.203 | -0.683 | 0.379 | 0.272 | 0.0674 | 0.0949 | 0.318 | – | – | – | – | – | – | – | – | –
15 | CC[C@@]1(O)C(=O)OCc2c1cc1n(c2=O)Cc2cc3c(CN(C)C)c(O)ccc3nc2-1 [Topotecan] (max 10 µM) | -0.43 | -0.584 | – | -0.332 | -0.861 | -0.2 | -0.324 | -0.241 | -0.786 | -0.457 | – | – | – | – | – | – | – | – | –
